Literature values, collected in patent US20120245028A1, “Methods for Use of Tetraalkyl Ammonium Halide Compositions as Post-emergence Higher Plant Herbicides” (priority 2011, published 2012).

Assays:
[1] = system: small apple tree seedlings; conditions: following fungus inoculation and a treatment with 5% solution
[2] = system: infected field apple trees; conditions: infected field apple trees treated with 5% solution

CCCCCCCCCC[N+](C)(C)CCCCCCCCCC.[Br-] [DDAB, didecyl dimethyl ammonium bromide]
phytotoxicity [1]: severe phytotoxicity
damage caused by the treatments [2]: no obvious damage
effect upon the total number of growing buds [2]: no effect
